Laboratory results reported in US9423343B2, “Membrane potential change detection device and membrane potential change detection method” (HAMAMATSU PHOTONICS K.K., priority 2010, dated 2016).

System: CHO cells
Experiment: Reflection interference measurement of membrane potential change (depolarization) after KCl dispensation, Measurement Example 1
Type: cell-based, Chinese hamster
Settings: for change rate of average luminosity at the peak: peak slightly over five minutes, FIG. 11
Source text: The functions and operation of the processing unit 20 will be described further referring to the flowchart of FIG. 7. First, the reflection interference image of adhesion faces of cells 101 is obtained by the reflection interference detection camera 110 (step S101, corresponding to “reflection interference imaging step” in the scope of claims). The amplitude of interfering light differs according to the distance of each cell 101 adhering onto the substrate as the bottom surface of the vessel 102 from the substrate as the bottom surface of the vessel 102, and the reflection interference image is taken as a contrast of bright and dark patterns. Next, correction is made for shading of reflected light in the field of the reflection interference image. In addition, an offset correction for background part is carried out in each time unit, so as to prevent temporal variation in value of the background without the cells 101. Through these image arithmetic corrections, we can obtain the reflection interference image with little spatial and temporal variation.
The reflection interference detection camera 110 acquires reflection interference images, for example, at intervals of one second. The intervals of acquisition of reflection interference images are preferably suitably controlled according to a rate of change of membrane potential of the cells 101. After a fixed time from a start of acquisition of image by the reflection interference detection camera 110, a chemical dispensing operation of the dispenser 117 is performed to dispense an intended chemical in an intended concentration to the solution in which the cells 101 are immersed.
The analysis unit 202 calculates a parameter about adhesion between each cell 101 and the transparent member 102a using the reflection interference images obtained intermittently in this manner (step S102, corresponding to “analysis step” in the scope of claims). In the present embodiment, the analysis unit calculates a “change rate of average luminosity” as the parameter to evaluate the change of membrane potential of cell 101 (corresponding to “parameter about adhesion” in the scope of claims).
When the image reception unit 201 receives the reflection interference images sequentially output from the reflection interference detection camera 110, the analysis unit 202 calculates the average luminosity I(t) of the measurement region in each of the reflection interference images and calculates a change rate dI relative to an average luminosity of the measurement region acquired in advance before chemical dispensation (which will be referred to hereinafter as average luminosity I(base) as a base”) (step S103, corresponding to “analysis step” in the scope of claims). […] The change rate dI is calculated by the formula below. […]
The analysis unit 202 detects a change of membrane potential of the cells 101 on the basis of the change rate dI calculated by the above formula. Namely, when a predetermined change rate dI is calculated, the analysis unit 202 makes such a valuation that there is some change detected in membrane potential in the cells 101. The analysis unit 202 may output a plot along time axis of the change rate dI (%) relative to the average luminosity before chemical dispensation calculated by the above formula, e.g., graphs as shown in (A) of FIGS. 8 and (B) of FIG. 8. […]

## [Cl-].[K+] [KCl, potassium chloride]
KCl concentration 6.25 mM
  change rate of average luminosity at the peak: +8%
KCl concentration 25 mM
  change rate of average luminosity at the peak: +35%
KCl concentration 50 mM
  change rate of average luminosity at the peak: +55%
KCl concentration 100 mM
  change rate of average luminosity at the peak: +95%
Image at 5 minutes after dispensation, FIG. 9
  change of reflection interference image after dispensation: the CHO cells departed from the transparent member on which the cells were laid, to make the reflection interference image brighter
